This passage reports GI50 and TGI results from PubChem BioAssay (NCI).

Several values for one entry are separate records, joined by “and”; a condition that tells them apart may be missing. Equal entries are not always repeated.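 Protocol summary: plate cells (96-well), add compound at 5 concentrations, incubate 48 h, interpolate endpoints linearly. The concentration for 50% growth inhibition is given as GI50. The concentration for full growth arrest is given as TGI.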

Among the test systems are SK-MEL-28 melanoma; OVCAR-3 ovarian; MDA-MB-231 breast; HT29 colon; SR leukemia; OVCAR-8 ovarian; T-47D breast; NCI-H460 lung; DU-145 prostate.
Experiment in all cases: DTP human tumour cell line panel, 48 h

As a reminder, the GI50 is the concentration at which growth is held to half of that of the control. What is called TGI is the concentration at which net growth stops. The low end stands for more potent growth arrest, the high end for less potent growth arrest.

On to `CCSCC1CC(O)(c2ccccc2)C(c2ccccc2)C(c2ccc(Cl)cc2)O1` (configuration not stated), for which the GI50 in the experiment with SK-MEL-28 melanoma is 1790 nM; in the experiment on OVCAR-3 ovarian, 1740 nM; with MDA-MB-231 breast it was 1820 nM; in the experiment on HT29 colon, 1090 nM; in the experiment on SR leukemia it was 2150 nM; with OVCAR-8 ovarian, 2270 nM. Further, the GI50 in the experiment on T-47D breast was 1420 nM; in the experiment with NCI-H460 lung, 1420 nM; in the experiment with DU-145 prostate, 1990 nM. Also, the TGI is 4190 nM with SK-MEL-28 melanoma; 4200 nM in the experiment on OVCAR-3 ovarian; 4410 nM in the experiment on MDA-MB-231 breast; 3170 nM with HT29 colon; 5990 nM in the experiment with SR leukemia; 5370 nM with OVCAR-8 ovarian. Moreover, the TGI with T-47D breast amounted to 4570 nM; in the experiment with NCI-H460 lung, 3440 nM; in the experiment with DU-145 prostate, 4400 nM.
Consider `Cc1c(N2CCCC2)cc2c(c1NC(=O)c1ccccc1Cl)C(C)(C)CC2(C)C`, for which the total growth inhibition concentration (TGI) worked out at 33100 nM in the experiment on SK-MEL-28 melanoma; 21300 nM in the experiment on OVCAR-3 ovarian; 29300 nM in the experiment on MDA-MB-231 breast; 29400 nM in the experiment on HT29 colon; 38100 nM in the experiment on SR leukemia; 32600 nM in the experiment with OVCAR-8 ovarian. In addition, the TGI is 24600 nM in the experiment on T-47D breast, 26000 nM in the experiment on NCI-H460 lung and 29300 nM in the experiment on DU-145 prostate.
For the compound `CC12CCC3C(CCC4Cc5[nH]c6ccccc6c5CC43C)C1CCC2O` (configuration not stated), the GI50 was 813 nM with SK-MEL-28 melanoma; 260 nM with OVCAR-3 ovarian; 2090 nM with MDA-MB-231 breast; 1580 nM with HT29 colon; 342 nM in the experiment with SR leukemia; 4100 nM with OVCAR-8 ovarian. In addition, the GI50 in the experiment with T-47D breast is 2300 nM; with NCI-H460 lung it was 609 nM; in the experiment on DU-145 prostate, 1690 nM. Also, the TGI in the experiment with SK-MEL-28 melanoma is > 100000 nM; with OVCAR-3 ovarian it was 719 nM; with MDA-MB-231 breast, 7160 nM; in the experiment on HT29 colon it was > 27100 nM; in the experiment on SR leukemia, 1320 nM; in the experiment with OVCAR-8 ovarian, > 100000 nM. Besides, the TGI in the experiment on T-47D breast is > 100000 nM; with NCI-H460 lung, > 100000 nM; in the experiment on DU-145 prostate, 5500 nM.
For `Cc1ccc(S(=O)(=O)OC2CCN(C)CC2)cc1`, the total growth inhibition concentration (TGI) in the experiment with SK-MEL-28 melanoma was > 100000 nM; in the experiment with OVCAR-3 ovarian it was > 100000 nM; with MDA-MB-231 breast, > 100000 nM; in the experiment with HT29 colon it was > 100000 nM; in the experiment on SR leukemia, 49900 nM; with OVCAR-8 ovarian, > 100000 nM. For the same compound, the figures for the TGI in the experiment on T-47D breast, in the experiment with NCI-H460 lung and in the experiment on DU-145 prostate were 48600 nM, > 100000 nM and > 100000 nM, respectively.
In the case of `CC(C)[C@]12O[C@H]1[C@@H]1O[C@]13[C@]1(O[C@H]1C[C@H]1C4=C(CC[C@@]13C)C(=O)OC4)[C@@H]2O`, the concentration for 50% growth inhibition (GI50) is 11.9 nM with SK-MEL-28 melanoma; 19.8 nM in the experiment with OVCAR-3 ovarian; 16.8 nM with MDA-MB-231 breast; 29 nM in the experiment with HT29 colon; 7.13 nM in the experiment on SR leukemia; 28.5 nM in the experiment on OVCAR-8 ovarian. Moreover, the 50% growth inhibitory concentration (GI50) with T-47D breast is 21.1 nM and 29.2 nM; in the experiment with NCI-H460 lung, < 10 nM; in the experiment on DU-145 prostate, 16.3 nM. Moreover, the TGI in the experiment with SK-MEL-28 melanoma is 22.6 nM and 32 nM; in the experiment with OVCAR-3 ovarian it was 93.2 nM and 377 nM; with MDA-MB-231 breast, 116 nM; in the experiment on HT29 colon, > 100000 nM; in the experiment with SR leukemia, 48.8 nM; with NCI-H460 lung, > 100000 nM. In the experiment on DU-145 prostate, the TGI is > 100000 nM.
Regarding `Clc1ccc(CSC(Cn2ccnc2)c2ccc(Cl)cc2Cl)cc1` (configuration not stated), the GI50 with SK-MEL-28 melanoma is 1690 nM; in the experiment with OVCAR-3 ovarian it was 1540 nM; in the experiment on MDA-MB-231 breast, 1510 nM; with HT29 colon it was 1440 nM; with SR leukemia, 2300 nM; in the experiment on OVCAR-8 ovarian, 1600 nM. Also, the GI50 in the experiment with T-47D breast was 999 nM; with NCI-H460 lung, 1470 nM; with DU-145 prostate, 2090 nM. The total growth inhibition concentration (TGI) in the experiment on SK-MEL-28 melanoma amounted to 3060 nM; with OVCAR-3 ovarian, 2870 nM; in the experiment with MDA-MB-231 breast it was 2980 nM; with HT29 colon it was 2810 nM; in the experiment on SR leukemia it was 5800 nM; in the experiment on OVCAR-8 ovarian it was 3320 nM. For the same compound, the total growth inhibition concentration (TGI) in the experiment on T-47D breast stood at 2760 nM; in the experiment with NCI-H460 lung it was 2780 nM; with DU-145 prostate, 4640 nM.
For `C=CC[n+]1c(/C=C/C=C2\N(C)c3ccccc3C2(C)C)sc2ccc(OC)cc21`, the GI50 is 464 nM with SK-MEL-28 melanoma; 176 nM in the experiment with OVCAR-3 ovarian; 272 nM in the experiment with MDA-MB-231 breast; 272 nM in the experiment with HT29 colon; 101 nM with SR leukemia; 327 nM in the experiment on OVCAR-8 ovarian. The GI50 in the experiment on T-47D breast was 23.1 nM; in the experiment on NCI-H460 lung, 199 nM; with DU-145 prostate it was 340 nM. The total growth inhibition concentration (TGI) in the experiment on SK-MEL-28 melanoma turned out to be 4790 nM; in the experiment with OVCAR-3 ovarian, 22200 nM; in the experiment on MDA-MB-231 breast, 1650 nM; with HT29 colon it was 6050 nM; in the experiment on SR leukemia, 7120 nM; with OVCAR-8 ovarian it was 33800 nM. Moreover, the TGI with T-47D breast was determined as 561 nM; with NCI-H460 lung, 12100 nM; in the experiment on DU-145 prostate it was 15600 nM.
Regarding `COc1c(C=O)c2c(c(OC)c1OC)-c1ccc(OC)c(=O)cc1[C@@H](NC(C)=O)CC2`, the TGI is > 100000 nM in the experiment on SK-MEL-28 melanoma; 1090 nM with OVCAR-3 ovarian; > 100000 nM in the experiment with MDA-MB-231 breast; > 8890 nM with HT29 colon; > 100000 nM in the experiment on SR leukemia; > 14400 nM in the experiment with OVCAR-8 ovarian. Moreover, the TGI was > 100000 nM in the experiment with T-47D breast, 18700 nM in the experiment on NCI-H460 lung and > 100000 nM with DU-145 prostate.
As to `OC(c1cccc(-n2ccc(C(F)(F)F)n2)c1)c1cnccc1NC1CCCCCC1` (configuration not stated), the GI50 with SK-MEL-28 melanoma was 1770 nM; with OVCAR-3 ovarian it was 1760 nM; with MDA-MB-231 breast, 1690 nM; in the experiment with HT29 colon, 1800 nM; with SR leukemia it was 1790 nM; with OVCAR-8 ovarian, 1920 nM. Moreover, the GI50 with T-47D breast was 1770 nM; in the experiment on NCI-H460 lung, 1840 nM; in the experiment on DU-145 prostate it was 1810 nM. Moreover, the concentration for total growth inhibition (TGI) in the experiment with SK-MEL-28 melanoma was 3200 nM; in the experiment on OVCAR-3 ovarian, 3220 nM; in the experiment with MDA-MB-231 breast it was 3160 nM; in the experiment on HT29 colon, 4330 nM; in the experiment with SR leukemia it was 6490 nM; in the experiment with OVCAR-8 ovarian, 3930 nM. Further, the TGI in the experiment on T-47D breast was 4230 nM; in the experiment on NCI-H460 lung it was 3420 nM; with DU-145 prostate, 3240 nM.
For `CCOC(=O)c1ccc2[nH]c(-c3ccc(S(=O)(=O)F)cc3)cc(=O)c2c1`, the concentration for total growth inhibition (TGI) was > 100000 nM in the experiment with SK-MEL-28 melanoma; 50300 nM in the experiment on OVCAR-3 ovarian; > 100000 nM with MDA-MB-231 breast; > 100000 nM in the experiment with HT29 colon; > 100000 nM in the experiment on SR leukemia; > 100000 nM in the experiment on OVCAR-8 ovarian. The TGI in the experiment on T-47D breast, in the experiment on NCI-H460 lung and with DU-145 prostate was > 100000 nM in each case.
